Source: patent US12653830B2, “Substituted imidazoquinoxaline compounds and uses thereof” (Impact Therapeutics (Shanghai), Inc, priority 2019, dated 2026)
Like-named read-outs stand apart in the source and are kept apart here.

Key:
[1] = tested on: human breast cancer cell MDA-MB-468; test: MTT proliferation assay, MDA-MB-468; type: cell-based; settings: Homo sapiens, MDA-MB-468, 168 h, 7 days, single agent, read-out: IC50, inhibition of proliferation of MDA-MB-468
Procedure: Determination of the Inhibitory Effect of the Compound of Example 2 and its Analogues on the Proliferation of Human Breast Cancer Cell MDA-MB-468 Using MTT Assay
The human breast cancer cells MDA-MB-468 were cultured in RPMI 1640 medium with 10% FBS and used at 90% confluence. The MDA-IVB-468 cells were digested with trypsinase and centrifuged at 800 rpm for 5 minutes. The supernatant was discarded and the cell pellets were resuspended with fresh medium and counted. Cells were seeded to 96-well cell culture plates with appropriate cell density and incubated overnight at 37° C., 5% CO2. […] 5 μL of solutions of each concentration was added to 120 μL of medium (diluted by 25 times) and mixed by shaking. The culture medium of cells cultured overnight was discarded and replaced with 195 μL/well of fresh medium (RPMI 1640+5% FBS) and 5 μL/well of diluted medium containing the test compound of corresponding concentrations (the final concentration of DMSO was 1%), and the culture plate was then returned to 5% CO2 incubator at 37° C. for 7 days (on the fourth day, dressing was changed once and culture was continued). On the day of experiment, culture medium was discarded and replaced with 100 μL/well of fresh serum-free DMEM medium containing MTT (0.5 mg/mL), and the culture was continued. After 4 hours, medium was discarded and replaced with 100 μL/well of DMSO, the plates were shaken for 10 minutes in darkness and the absorbance was measured at the wavelengths of 552 and 693 nm using a multi-function plate reader. Graph Pad Prism 6.0 was used to analyze the data. The inhibitory effects of compounds on cell proliferation were plotted based on cell viability vs. the logarithm of compound concentration. Cell viability %=(ODcompound−ODbackground)/(ODDMSO−ODbackground)×100.
Table 4 summarizes the inhibitory effect data (IC50) of some compounds on the proliferation of human breast cancer cell MDA-MB-468.

ATM kinase = target: T1, ATM kinase (Homo sapiens, UniProt Q13315); test: In vitro ATM kinase assay (Cisbio HTRF, p53 substrate); type: biochemical; settings: 30 μM ATP; for inhibition at 0.0001 µM: Conc. 0.1 nM; for inhibition at 0.001 µM: Conc. 1 nM; for inhibition at 0.01 µM: Conc. 10 nM
T1 construct: purchased Eurofins 14-933
Procedure: Determination of the Inhibitory Effect In Vitro of the Compound of Example 2 and its Analogues on ATM Using In Vitro ATM Kinase Assay
ATM enzymatic activity was measured using Cisbio's HTRF reagent in a 384-well plate (Greiner, #784075). […] The mixtures were centrifuged at 1000 rpm for 1 minute, and reacted in dark for 30 minutes at room temperature. Then, 5 μL of EDTA termination solution (250 mm) was added to terminate the reaction. After 5 μL of detection mixture (Anti-phospho-p53 (ser15)-K (Cisbio, #61P08KAE, 0.084 ng/μL) and Anti-GST-d2 (Cisbio, #61GSTDLA, 5.00 ng/μL)) was finally added to each well, the mixtures were cultured at room temperature over night, and the fluorescence values at 665 nm and 615 nm were measured on Envision 2104. The final concentration of each reagent of the experiment was as follows: 12.5 mM HEPES (pH8.0), 0.5% glycerol, 0.005% Brij-35, 0.625 mM DTT, 0.0125% BSA, 15 nM p53, 0.25 ng/μL ATM, 30 μM ATP, 2.5 mM Mg(AcO)2, 2.5 mM MnCl2, 62.5 mM EDTA, 0.021 ng/μL Anti-phospho-p53, 1.25 ng/μL Anti-GST-d2.
Relative fluorescence ratio was calculated: Ratio665 nm/615 nm−Ratiobackground, and inhibition rate %=(1−(relative fluorescence ratio of test compound well−relative fluorescence ratio of positive control well)/(relative fluorescence ratio of negative control well−relative fluorescence ratio of positive control well))×100 was calculated. Data were analyzed using GraphPad Prism6.0 and fitted using the curve equation: Y=Bottom+(Top−Bottom)/(1+10^((Log IC50−X)*HillSlope)), and IC50 values were calculated.

[2] = tested on: human colon cancer cell SW620; test: MTT proliferation assay in combination with CPT-11, SW620; type: cell-based; settings: medium containing 205 nM CPT-11, 5 days, read-out: IC50, inhibition of proliferation of SW620 combined with CPT-11
Procedure: Determination of the Inhibitory Effect of the Compound of Example 2 and its Analogues in Combination with CPT-11 on the Proliferation of Human Colon Cancer Cell SW620 Using MTT Assay
The human colon cancer cells SW620 were cultured in RPMI 1640 medium with 10% FBS and used at about 90% confluence for experiments. The SW620 cells were digested with trypsinase and centrifuged at 800 rpm for 5 minutes. The supernatant was discarded and the cell pellets were resuspended with fresh medium (RPMI 1640+10% FBS). The cells were seeded into 96-well cell culture plates with appropriate cell density and incubated at 37° C. overnight in a 5% CO2 incubator. […] The first concentration was 1 μM or 0.333 μM, the last concentration was DMSO negative control (0 μM). 5 μL of solutions of each concentration was added to 120 μL of medium (a 25 times dilution) and mixed by shaking. The cells were cultured overnight and the culture medium was replaced with 195 μL/well of fresh medium containing 205 nM CPT-11 and 5 μL/well of medium containing the test compound (the final concentration of DMSO was 1%). The culture plates were returned to incubator and cultured at 37° C., 5% CO2 for 5 days. At the day of experiment, medium was discarded and replaced with 100 μL of fresh serum-free DMEM medium containing MTT (0.5 mg/mL), and the culture was continued. 4 hours later, the medium was discarded and replaced with 100 μL/well of DMSO, the plate was shaken for 10 minutes in dark and the absorbance was measured at the wavelengths of 552 and 690 nm using a multi-function plate reader. Data were analyzed by Graph Pad Prism 6.0. The inhibitory effects of compounds on cell proliferation were plotted based on cell viability vs. the logarithm of compound concentration. Cell viability %=(ODcompound−ODbackground)/(ODDMSO−ODbackground)×100.
Table 3 summarizes the inhibitory effect data (IC50) of some compounds combined with CPT-11 on the proliferation of human colon cancer cell SW620.

[3] = read-out: Inh % (inhibitory effect on ATM kinase activity)

T1 sequence (Q13315 whole entry): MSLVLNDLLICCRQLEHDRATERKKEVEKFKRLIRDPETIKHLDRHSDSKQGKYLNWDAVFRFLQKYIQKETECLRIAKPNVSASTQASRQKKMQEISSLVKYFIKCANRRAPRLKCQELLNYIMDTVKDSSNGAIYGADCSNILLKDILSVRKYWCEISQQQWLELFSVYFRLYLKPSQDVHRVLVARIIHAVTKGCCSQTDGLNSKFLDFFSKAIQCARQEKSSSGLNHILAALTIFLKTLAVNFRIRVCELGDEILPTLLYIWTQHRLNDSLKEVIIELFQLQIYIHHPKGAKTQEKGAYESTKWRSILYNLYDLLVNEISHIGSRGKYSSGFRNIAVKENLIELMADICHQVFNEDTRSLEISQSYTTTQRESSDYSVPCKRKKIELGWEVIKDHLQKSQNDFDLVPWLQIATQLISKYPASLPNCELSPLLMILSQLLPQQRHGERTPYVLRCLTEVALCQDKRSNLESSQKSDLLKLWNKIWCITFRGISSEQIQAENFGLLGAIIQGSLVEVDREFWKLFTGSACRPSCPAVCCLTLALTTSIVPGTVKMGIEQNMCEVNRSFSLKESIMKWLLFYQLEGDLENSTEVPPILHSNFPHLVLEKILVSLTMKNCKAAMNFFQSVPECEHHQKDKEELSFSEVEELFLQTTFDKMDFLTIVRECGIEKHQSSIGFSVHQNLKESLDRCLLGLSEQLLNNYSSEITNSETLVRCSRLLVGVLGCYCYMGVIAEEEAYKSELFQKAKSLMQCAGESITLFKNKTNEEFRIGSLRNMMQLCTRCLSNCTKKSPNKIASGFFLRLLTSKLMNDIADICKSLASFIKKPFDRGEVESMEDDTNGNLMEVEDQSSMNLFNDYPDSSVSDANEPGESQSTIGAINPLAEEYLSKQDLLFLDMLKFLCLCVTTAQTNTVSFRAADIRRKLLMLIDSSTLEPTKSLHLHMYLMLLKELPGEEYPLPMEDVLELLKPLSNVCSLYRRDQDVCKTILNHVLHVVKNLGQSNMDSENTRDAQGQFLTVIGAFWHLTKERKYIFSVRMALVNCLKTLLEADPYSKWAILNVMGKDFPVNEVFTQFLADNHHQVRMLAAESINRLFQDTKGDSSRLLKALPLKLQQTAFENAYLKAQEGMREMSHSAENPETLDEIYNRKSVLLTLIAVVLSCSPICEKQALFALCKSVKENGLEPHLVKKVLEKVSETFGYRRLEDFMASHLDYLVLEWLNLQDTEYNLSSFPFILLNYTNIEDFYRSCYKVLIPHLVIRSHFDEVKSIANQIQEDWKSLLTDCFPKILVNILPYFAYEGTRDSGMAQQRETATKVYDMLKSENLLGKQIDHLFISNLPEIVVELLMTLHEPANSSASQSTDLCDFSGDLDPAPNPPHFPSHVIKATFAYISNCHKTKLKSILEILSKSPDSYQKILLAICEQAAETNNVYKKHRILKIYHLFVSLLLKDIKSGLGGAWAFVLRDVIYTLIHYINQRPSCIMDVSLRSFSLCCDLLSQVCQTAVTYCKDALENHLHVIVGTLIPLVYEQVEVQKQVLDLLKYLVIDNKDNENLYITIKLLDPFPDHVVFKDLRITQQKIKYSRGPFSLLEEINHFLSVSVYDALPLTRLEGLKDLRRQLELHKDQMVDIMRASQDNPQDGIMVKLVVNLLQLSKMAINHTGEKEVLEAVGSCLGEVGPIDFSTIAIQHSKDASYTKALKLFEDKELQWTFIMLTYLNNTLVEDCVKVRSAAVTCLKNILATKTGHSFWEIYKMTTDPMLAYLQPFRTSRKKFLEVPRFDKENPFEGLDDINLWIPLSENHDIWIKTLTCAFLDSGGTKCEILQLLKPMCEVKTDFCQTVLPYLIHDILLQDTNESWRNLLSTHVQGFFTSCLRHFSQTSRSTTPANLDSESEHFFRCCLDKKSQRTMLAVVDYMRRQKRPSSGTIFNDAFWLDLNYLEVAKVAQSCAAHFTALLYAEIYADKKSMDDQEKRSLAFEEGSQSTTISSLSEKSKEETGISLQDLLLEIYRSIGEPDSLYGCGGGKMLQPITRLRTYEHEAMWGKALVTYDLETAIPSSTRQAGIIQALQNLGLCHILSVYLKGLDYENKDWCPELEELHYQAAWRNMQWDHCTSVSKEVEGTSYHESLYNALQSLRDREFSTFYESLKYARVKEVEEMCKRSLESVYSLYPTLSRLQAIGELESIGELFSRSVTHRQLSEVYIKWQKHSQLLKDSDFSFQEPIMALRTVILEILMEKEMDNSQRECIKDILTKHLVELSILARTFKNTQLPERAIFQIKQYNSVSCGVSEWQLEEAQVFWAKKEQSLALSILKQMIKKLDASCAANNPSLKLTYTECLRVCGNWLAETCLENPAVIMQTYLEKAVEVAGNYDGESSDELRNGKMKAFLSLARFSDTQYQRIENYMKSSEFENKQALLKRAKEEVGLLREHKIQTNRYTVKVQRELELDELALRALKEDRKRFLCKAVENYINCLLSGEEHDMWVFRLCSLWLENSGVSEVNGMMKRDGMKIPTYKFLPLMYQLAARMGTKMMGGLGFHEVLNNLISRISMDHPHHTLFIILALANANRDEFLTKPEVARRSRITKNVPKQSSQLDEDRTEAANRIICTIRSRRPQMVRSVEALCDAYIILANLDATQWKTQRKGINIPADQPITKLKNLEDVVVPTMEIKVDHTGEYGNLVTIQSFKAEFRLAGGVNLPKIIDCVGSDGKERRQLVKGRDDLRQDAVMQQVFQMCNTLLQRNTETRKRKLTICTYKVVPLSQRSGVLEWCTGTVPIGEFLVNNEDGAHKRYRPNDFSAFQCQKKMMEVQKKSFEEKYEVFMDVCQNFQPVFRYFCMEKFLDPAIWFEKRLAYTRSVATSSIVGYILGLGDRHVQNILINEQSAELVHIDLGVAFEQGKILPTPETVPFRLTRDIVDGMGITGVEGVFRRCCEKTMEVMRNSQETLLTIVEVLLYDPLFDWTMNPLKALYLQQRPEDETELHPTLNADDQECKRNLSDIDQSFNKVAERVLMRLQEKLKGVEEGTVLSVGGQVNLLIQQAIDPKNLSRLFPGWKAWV

IC50 [1] | inhibition at 0.0001 µM (ATM kinase; [3]) | inhibition at 0.001 µM (ATM kinase; [3]) | inhibition at 0.01 µM (ATM kinase; [3]) | IC50 [2] | IC50 (ATM kinase) | IC50 ([2]; Homo sapiens, SW-620, 120 h) | inhibition at 0.1 µM (ATM kinase; Conc. 100 nM, read-out: Inh % (inhibitory effect on ATM kinase activity)) | SMILES
11.6 nM | 33% | 93% | 99% | 12.6 nM |  |  |  | Cc1nc(C2CCOCC2)n2c1cnc1ccc(-c3ccc(N4CCC(N(C)C)CC4)c(F)c3)cc12 [Example 6, N,N-dimethyl-1-(2-fluoro-4-(3-methyl-1-(tetrahydro-2H-pyran-4-yl)imidazo[1,5-a]quinoxalin-8-yl)phenyl)piperidin-4-amine]
7.98 nM |  |  |  |  | 0.31 nM | 9.3 nM |  | Cc1nc(N2C[C@@H](C)O[C@@H](C)C2)n2c1cnc1ccc(-c3ccc(OCCCN(C)C)nc3)cc12 [Example 15, N,N-dimethyl-3-((5-(1-((2S,6R)-2,6-dimethylmorpholino)-3-methylimidazo[1,5-a]quinoxalin-8-yl)pyridin-2-yl)oxy)propan-1-amine]
6.5 nM |  |  |  |  | 0.2 nM | 8.1 nM |  | Cc1nc(N2C[C@@H](C)O[C@@H](C)C2)n2c1cnc1ccc(-c3ccc(N4CCC(N(C)C)CC4)c(Cl)c3)cc12 [Example 40, 1-(2-chloro-4-(1-((2S,6R)-2,6-dimethylmorpholino)-3-methylimidazo[1,5-a]quinoxalin-8-yl)phenyl)-N,N-dimethylpiperidin-4-amine]
17.8 nM |  |  |  |  | 0.19 nM | 23.3 nM |  | Cc1nc(N2C[C@@H](C)O[C@@H](C)C2)n2c1cnc1ccc(-c3ccc(OCCCN4CCOCC4)nc3)cc12 [Example 58, (2S,6R)-2,6-dimethyl-4-(3-methyl-8-(6-(3-morpholinopropoxy)pyridin-3-yl)imidazo[1,5-a]quinoxalin-1-yl)morpholine]
18.5 nM | 28% | 92% | 100% |  | 0.2 nM | 18.3 nM |  | Cc1nc(N2C[C@@H](C)O[C@@H](C)C2)n2c1cnc1ccc(-c3ccc(OCCCN4CCCCC4)nc3)cc12 [Example 33, (2S,6R)-2,6-dimethyl-4-(3-methyl-8-(6-(3-(piperidin-1-yl)propoxy)pyridin-3-yl)imidazo[1,5-a]quinoxalin-1-yl)morpholine]
9.91 nM | 31% | 94% | 100% | 16.3 nM |  |  |  | Cc1nc(C(C)C)n2c1cnc1ccc(-c3ccc(OCCCN4CCCCC4)nc3)cc12 [Example 22, 1-isopropyl-3-methyl-8-(6-(3-(piperidin-1-yl)propoxy)pyridin-3yl)imidazo[1,5-a]quinoxaline]
103 nM |  | 25% | 71% | 123 nM |  |  | 96% | CN(C)CCCOc1ccc(-c2ccc3ncc4cnc(C5CCOCC5)n4c3c2)cc1 [Example 1, N,N-dimethyl-3-(4-(1-(tetrahydro-2H-pyran-4-yl)imidazo[1,5-a]quinoxalin-8-yl)phenoxy)propan-1-amine]
16.7 nM |  |  |  |  | 0.41 nM | 17.9 nM |  | C[C@@H]1CN(c2ncc3cnc4ccc(-c5ccc(OCCCN(C)C)nc5)cc4n23)C[C@H](C)O1 [Example 43, 3-((5-(1-((2S,6R)-2,6-dimethylmorpholino)imidazo[1,5-a]quinoxalin-8-yl)pyridin-2-yl)oxy)-N,N-dimethylpropan-1-amine]
23.1 nM | 28% | 96% | 99% | 24 nM |  |  |  | Cc1nc(C2CCOCC2)n2c1cnc1ccc(-c3ccc(N4CCC(N)CC4)c(C(F)(F)F)c3)cc12 [Example 9, 1-(4-(3-methyl-1-(tetrahydro-2H-pyran-4-yl)imidazo[1,5-a]quinoxalin-8-yl)-2-(trifluoromethyl)phenyl)piperidin-4-amine]
6.4 nM | 30% | 87% | 98% | 6.5 nM |  |  |  | Cc1nc(N2C[C@@H](C)N(C)[C@@H](C)C2)n2c1cnc1ccc(-c3ccc(OCCCN(C)C)nc3)cc12 [Example 18, N,N-dimethyl-3-((5-(3-methyl-1-((3S,5R)-3,4,5-trimethylpiperazin-1-yl)imidazo[1,5-a]quinoxalin-8-yl)pyridin-2-yl)oxy)propan-1-amine]
16.4 nM | 13% | 74% | 99% | 16.7 nM |  |  |  | CNC1CCN(c2ccc(-c3ccc4ncc5c(C)nc(C6CCOCC6)n5c4c3)cc2C(F)(F)F)CC1 [Example 10, N-methyl-1-(4-(3-methyl-1-(tetrahydro-2H-pyran-4-yl)imidazo[1,5-a]quinoxalin-8-yl)-2-(trifluoromethyl)phenyl)piperidin-4-amine]
8.1 nM |  |  |  |  | 0.41 nM | 6.3 nM |  | CCNC1CCN(c2ccc(-c3ccc4ncc5c(C)nc(N6C[C@@H](C)O[C@@H](C)C6)n5c4c3)cn2)CC1 [Example 50, 1-(5-(1-((2S,6R)-2,6-dimethylmorpholino)-3-methylimidazo[1,5-a]quinoxalin-8-yl)pyridin-2-yl)-N-ethylpiperidin-4-amine]
6.9 nM |  |  |  |  | 0.2 nM | 8.7 nM |  | Cc1nc(N2C[C@@H](C)O[C@@H](C)C2)n2c1cnc1ccc(-c3ccc(N4CCC(N(C)C)CC4)nc3)cc12 [Example 38, 1-(5-(1-((2S,6R)-2,6-dimethylmorpholino)-3-methylimidazo[1,5-a]quinoxalin-8-yl)pyridin-2-yl)-N,N-dimethylpiperidin-4-amine]
38.9 nM |  |  | 97% | 41.1 nM |  |  |  | Cc1nc(C2CCOCC2)n2c1cnc1ccc(-c3ccc(OCCCN(C)C)c(F)c3)cc12 [Example 4, N,N-dimethyl-3-(2-fluoro-4-(3-methyl-1-(tetrahydro-2H-pyran-4-yl)imidazo[1,5-a]quinoxalin-8-yl)phenoxy)propan-1-amine]
